According to patent US20210077492A1, “METHODS AND COMPOSITIONS OF TREATING PANCREATIC CANCER” (The Trustees of Indiana University, priority 2019, published 2021):

Tests used:
[1] = system: pancreatic cancer cell line ASPC1; assay: LINE1 global 5-methyl-cytosine DNA methylation assay in treated or transfected cells; type: cell-based, human; conditions: concentration not given
Method: DNA Methylation of normal pancreas and PDAC tumor samples was analyzed using data available through the MethHC database (http://methhc.mbc.nctu.edu.tw/php/index.php) using the PAAD dataset. Methylation analysis was performed at transcriptional start sites (TSS), promoters, and CpG island. For global DNA methylation changes, cells were transfected with shRNA against human UHRF1 (Dharmacon Horizon, catalog V3SH7590-225743149) for 96 hours or treated with THU (1 μM) DT1 (0.5-15 μM) or 5-aza-cytidine (1 μM). DNA was isolated using the Clonetech NucleoSpin DNA rapid lyse kit (catalog 740110.1) following manufacture's recommended conditions. 100 ng of isolated DNA was used to quantify DNA methylation using the 5mC-Long Interspersed Nucleotide Element 1 (LINE-1) kit from Active Motif (catalog number 55017) following the manufacture's recommendations. A Colorimetric ELISA readout was measured on a BioTek synhergy HI reader at 450 nm.
Referring now to FIG. 17, pancreatic cancer cell line ASPC1 was transfected with shRNA against UHRF1. DNA (100 ng) was isolated from shUFRF1 and scramble transfected cells at 96 hours post transfection and was used for quantification of global 5-methyl-cytosine methylation using LINE1 global DNA methylation kit (ACTIVE MOTIF).
Referring now to FIG. 23, primary PDAC cells were incubated with 2 μM of DT1 and 1 uM of THU for 96 hrs. […]

[2] = system: PDAC cell lines ASPC1, MiaPaCa-2, BXPC3; assay: Cell proliferation of PDAC cell lines by automated IncuCyte incubator; type: cell-based, human
Method: A panel of pancreatic cancer cell lines (PCCs) was ordered from ATCC (https://www.atcc.org). Cells were cultured in RPMI media supplemented with 10% FBS and 1% penicillin streptomycin (100 units/ml of penicillin and […] of streptomycin) in a 37° C. incubator with 5% Carbon dioxide (CO2). All cell lines were confirmed to be mycoplasma-free using a Mycoalert detection kit (Lonza Allendale N.J., catalog #LT07-218) as per manufacturer's protocol. For DT1, DAC, and THU treatments, 1000 cells were plated in a 96 well plate overnight. Cells were treated three times at 24, 48, and 72 hours post-plating using concentrations of 0.2-2 μM of DT1 and DAC and 1-2 μM of THU independently or in combination. DMSO was used as a vehicle control. Cell proliferation was measured in a 37° C., Incucyte incubator (IncuCyte™ live-cell, Essen biosciences, Michigan USA) with 5% CO2 for automated live cell proliferation in real time, and images were taken every 6 hours for up to 160 hours. Cells were also counted on a Beckman coulter automated cell counter. Referring now to FIG. 27, primary PDAC cell line ASPC1 was incubated with 2 μM DT1 to inhibit UHRF1 and/or DNMT1 inhibitor DAC or CDA inhibitor THU (1 μM) or […], 0.2 μM DAC and THU (1 μM). Cell proliferation was quantified by automated IncuCyte incubator for 160 hours. […] Referring now to FIG. 28, primary PDAC cell line MiaPaCa-2 was incubated with 2 μM DT1 to inhibit UHRF1 and/or DNMT1 inhibitor DAC or CDA inhibitor THU (1 μM) or […], 0.2 μM DAC, and THU (1 μM). Cell proliferation was quantified by automated IncuCyte incubator for 160 hours. […] Referring now to FIG. 29, primary PDAC cell line BXPC3 was incubated with 2 μM DT1 to inhibit UHRF1 and/or DNMT1 inhibitor DAC or CDA inhibitor THU (1 μM) or […], 0.2 μM DAC, and THU (1 μM). Cell proliferation was quantified by automated IncuCyte incubator for 160 hours. […] Decitabine (DAC) is a clinically available drug that degrades DNMT1 to decrease DNA methylation while DT1 targets UHRF1.

ASPC1 and BXPC3 cells = assay: Gene expression of pancreas differentiation factors by qPCR; type: cell-based, human; conditions: DT1 at 0.5-2 μM
Method: Gene expression analysis by real time quantitative polymerase chain reaction (qRT-PCR) was performed using standard methods. Gene expression of target genes was performed using either SYBR green methods or Power Green ROX dye master mix (Applied Biosystems, Foster city CA, USA Lot number 1610538). Assays were performed with an Applied Biosytems ViiA7 (Life Technologies).
Referring now to FIG. 23, primary PDAC cells were incubated with 2 μM of DT1 and 1 uM of THU for 96 hrs. RNA was isolated and gene expression pancreas differentiation factors were analyzed in ASPC1 and BXPC3 cells. Referring now to FIG. 24, primary PDAC cell line ASPC1 was treated with 1 μM of THU, 2 μM of DT1, and 1 μM of DAC, or the combination of 0.5 μM of DT1 plus 0.2 μM of DAC, or 1 μM of THU and 0.5 μM of DT1 plus 0.2 μM of DAC. Morphological analysis was performed using a giemsa staining method to determine induction of differentiation (enlargement of cytoplasm and reduction of nuclear compartments). Black bar=200× magnification. Referring now to FIG. 25, primary PDAC cell line ASPC1 was treated with 100 nM of ATRA and 1 μM of DAC, or combination of 100 nM of ATRA plus 200 nM of DAC. […] DNA (100 ng) was isolated at 96 hours post transfection and was used to quantify global 5-methyla-cytosine (5-mC) methylation using LINE1 global DNA methylation kit (ACTIVE MOTIF). […]

[3] = system: primary PDAC cell line ASPC1; assay: Morphological analysis by giemsa staining for induction of differentiation; type: cell-based, human; conditions: DT1 at 0.5-2 μM
Method: Referring now to FIG. 23, primary PDAC cells were incubated with 2 μM of DT1 and 1 uM of THU for 96 hrs. RNA was isolated and gene expression pancreas differentiation factors were analyzed in ASPC1 and BXPC3 cells. Referring now to FIG. 24, primary PDAC cell line ASPC1 was treated with 1 μM of THU, 2 μM of DT1, and 1 μM of DAC, or the combination of 0.5 μM of DT1 plus 0.2 μM of DAC, or 1 μM of THU and 0.5 μM of DT1 plus 0.2 μM of DAC. Morphological analysis was performed using a giemsa staining method to determine induction of differentiation (enlargement of cytoplasm and reduction of nuclear compartments). Black bar=200× magnification. Referring now to FIG. 25, primary PDAC cell line ASPC1 was treated with 100 nM of ATRA and 1 μM of DAC, or combination of 100 nM of ATRA plus 200 nM of DAC. Morphological analysis was performed using a giemsa staining method to determine induction of differentiation (enlargement of cytoplasm and reduction of nuclear compartments). Black bar=200× magnification. Referring now to FIG. 26, pancreatic cancer cell line ASPC1 was treated with DMSO as control, 1 μM of THU, and varying DT1 concentrations. DNA (100 ng) was isolated at 96 hours post transfection and was used to quantify global 5-methyla-cytosine (5-mC) methylation using LINE1 global DNA methylation kit (ACTIVE MOTIF). […]

[4] = system: orthotopic xenografts of PDAC with AsPC-1 cells; assay: Orthotopic PDAC xenograft model, tumor growth kinetics; type: in vivo; conditions: THU 10 mg/kg three times weekly, 35 days
Method: Orthotopic mouse models with human PDAC cells were generated using NOD/SCID mice. In vivo BLI was conducted on a NiteOwl system and acquisition software. Data were analyzed using eLumenate analysis software. For the primary tumor, signal intensity was quantified as the sum of all detected photon counts within a region of interest selected by an automated maximum entropy method and normalized to the area of that region of interest. For the metastatic region, a region of interest was drawn manually in a “crescent” shape which encompassed all of the abdominal region except the primary tumor and maintained a boundary at least 2 mm away from the ROI for the primary. The signal in the metastatic region was again quantified by dividing the sum of all detected photon counts in the region by the area of the region.
Referring to FIG. 30, bioluminescent and primary PDAC cell lines ASPC1 and MiPaCa-2 were used to generate PDAC xenografts for therapeutic validation. At 22 days post injection of tumor cells, tumor growth and metastatic dissemination are detected in this orthotopic models in NOD/SCID mice. Referring to FIG. 31, orthotopic xenografts of PDAC with AsPC-1 cells were treated with vehicle control, Tetrahydrouridine (THU, 10 mg/kg), Decitabine (DAC, 0.2 mg/kg), or combination of THU (10 mg/kg) with DAC (0.1 mg/kg) three times weekly. […]

SMILES	global DNA methylation [1]	concentration range at which DT1 activity was observed [2]	PDAC proliferation ([2]; DT1 at 0.5-2 μM)	expression of pancreas differentiation factors (ASPC1 and BXPC3 cells)	differentiation-based morphological changes [3]	PDAC proliferation ([2]; alone or in combination, methods: 0.2-2 μM of DT1 and DAC, 1-2 μM of THU)	tumor growth kinetics [4]
C/C(=N\O)c1c[nH]c(=O)[nH]c1=O [DT1]	decreased global DNA methylation	micromolar range	decreased PDAC proliferation	upregulated pancreas differentiation factors	induced differentiation-based morphological changes		
O=C1NC(O)CCN1[C@@H]1O[C@H](CO)[C@@H](O)[C@H]1O (stereo partly shown) [THU, tetrahydrouridine, reference compound]						did not inhibit PDAC proliferation alone	did not affect tumor growth kinetics
